This passage reports IC50 and MRT results from patent publication US12497403B2, “Factor XIa inhibitors” (Merck Sharp & Dohme LLC, priority 2021, dated 2025).

Each structure is given as a SMILES string. Some results are limits rather than exact numbers.

The target in one series is T1, Human plasma kallikrein (Homo sapiens, UniProt P03952).
T1 construct: yields a heavy chain (371 amino acids) and a light chain (248 amino acids); purchased Enzyme Research Laboratories
In words: Kallikrein assay (plasma kallikrein). Type of series: biochemical. The following applies: purified Human plasma kallikrein 0.5 nM, Acetyl-K-P-R-AFC substrate, pH 7.4; read-out: pKal IC50. The protocol:
The effectiveness of a compound of the present invention as an inhibitor of Kallikrein can be determined using a relevant purified serine protease, and an appropriate synthetic substrate. The rate of hydrolysis of the chromogenic or fluorogenic substrate by the relevant serine protease was measured both in the absence and presence of compounds of the present invention. Assays were conducted at room temperature or at 37° C. […] A decrease in the rate of fluorescence change in the presence of inhibitor is indicative of enzyme inhibition. Such methods are known to one skilled in the art. The results of this assay are expressed as the half-maximal inhibitory concentrations (IC50), or the inhibitory constant. Ki.
Kallikrein determinations were made in 50 mM HEPES buffer at pH 7.4 containing 150 mM NaCl, 5 mM CaCl2, and 0.1% PEG 8000 (polyethylene glycol; Fisher Scientific). Determinations were made using purified Human plasma kallikrein at a final concentration of 0.5 nM (Enzyme Research Laboratories) and the synthetic substrate. Acetyl-K-P-R-AFC (Sigma # C6608) at a concentration of […].
Activity assays were performed by diluting a stock solution of substrate at least tenfold to a final concentration≤ 0.2 Km into a solution containing enzyme or enzyme equilibrated with inhibitor. Times required to achieve equilibration between enzyme and inhibitor were determined in control experiments. The reactions were performed under linear progress curve conditions and fluorescence increase measured at 405 Ex/510 Em nm. Values were converted to percent inhibition of the control reaction (after subtracting 100% Inhibition value). IC50 was determined by inflection point from a four parameter logistic curve fit. Ki was calculated using the Cheng Prusoff equation. Ki=IC50/(1+([S]/Km)).

The target in series [1] is T2, Human Norepinephrine Transporter (NET) (Homo sapiens, UniProt P23975).
T2 construct: host or cells: MDCK cells
T2 sequence (P23975 whole entry): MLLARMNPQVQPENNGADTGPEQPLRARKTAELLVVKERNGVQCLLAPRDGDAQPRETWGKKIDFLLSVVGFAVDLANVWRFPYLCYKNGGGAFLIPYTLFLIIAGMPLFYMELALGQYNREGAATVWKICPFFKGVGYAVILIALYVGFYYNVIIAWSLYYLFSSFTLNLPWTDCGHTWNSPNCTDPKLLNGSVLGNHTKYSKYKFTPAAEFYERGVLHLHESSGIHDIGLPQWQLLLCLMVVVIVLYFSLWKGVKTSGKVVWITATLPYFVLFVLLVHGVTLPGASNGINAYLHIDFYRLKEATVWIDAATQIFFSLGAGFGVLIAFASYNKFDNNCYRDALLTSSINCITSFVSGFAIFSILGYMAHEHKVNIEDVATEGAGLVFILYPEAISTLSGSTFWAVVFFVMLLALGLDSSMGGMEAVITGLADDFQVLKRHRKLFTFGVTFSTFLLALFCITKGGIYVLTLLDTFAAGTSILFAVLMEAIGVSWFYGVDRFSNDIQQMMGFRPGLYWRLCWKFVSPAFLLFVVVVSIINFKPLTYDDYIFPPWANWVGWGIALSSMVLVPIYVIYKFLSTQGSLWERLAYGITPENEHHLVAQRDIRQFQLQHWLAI
In words: Norepinephrine Transporter functional antagonist uptake assay. Type of series: cell-based. The following applies: [3H]Norepinephrine uptake, human recombinant NET in MDCK cells. Here is the method:
Human Norepinephrine Transporter (NET) Functional Antagonist Uptake Assay was carried out at Panlabs Cerep (assay#302100). Human recombinant norepinephrine transporter expressed in MDCK cells were plated overnight. Test compound and/or vehicle was pre-incubated with cells (2×10E5/ml) in modified Tris-HEPES buffer pH 7.1 for 20 minutes at 25° C. and 25 nM [3H]Norepinephrine was then added for an additional 15 minute incubation period. A lysate was obtained from solubilized cells and counted to determine [3H]Norepinephrine uptake. Reduction of [3H]Norepinephrine uptake by 50 percent or more (≥50%) relative to 10 μM desipramine indicates significant inhibitory activity. Compounds are screened at 10, 3, 1, 0.3, 0.1, 0.03, 0.01 and 0.003 μM. These same concentrations are concurrently applied to a separate group of untreated cells and evaluated for possible compound-induced cytotoxicity only if significant inhibition of uptake is observed. IC50 values were determined by a non-linear, least squares regression analysis using MathIQTM (IDBusiness Solutions Ltd., UK).

The nature of series [2]: Rat pharmacokinetics (cassette IV or screening IV/PO). Type of series: in vivo. The note with it: male; rat plasma, mean residence time. The protocol: Plasma pharmacokinetic parameters for clearance, volume of distribution, half-life and mean residence time (MRT) were determined in rats from IV cassette administration studies. 2 male rats typically weighing 225-260 gram, were fasted overnight prior to dosing. Compounds were prepared for IV dosing by addition to a vehicle, depending on the dose used. For a typical preparation, 1 mg per mL (IV) of up to 5 test compounds were added to vehicle comprised of 20% dimethyl sulfoxide (DMSO), 60% polyethylene glycol 400 (PEG400) and 20% water. IV formulation was administered to 2 rats via pre-cannulated jugular vein. Blood was collected by pre-cannulated artery, typically at predose, 2, 8, 15, 30 min. 1, 2, 4, 6, and 8 hr postdose. Samples were collected in K2EDTA tubes, stored on ice, and centrifuged. Plasma was transferred to a micro titer plate and stored at −70° C.until analysis. Plasma samples were extracted using protein precipitation and analyzed by liquid chromatography separation followed by mass spec detection (LCMS/MS), using a standard curve for each compound. Plasma pharmacokinetic parameters were calculated by non-compartmental methods.
Plasma pharmacokinetic parameters for clearance, volume of distribution, half-life, mean residence time (MRT) and oral bioavailability (%F)-were determined in rats from oral administration and IV administration studies. 4 male rats, typically weighing 225-260 gram, were fasted overnight prior to dosing. Compounds were prepared for oral and IV dosing by addition to a vehicle, depending on the dose used. For a typical preparation, 1 mg per mL (IV) or 1.5 mg per mL (oral) of test compound was added to vehicle comprised of 20% dimethyl sulfoxide (DMSO), 60% polyethylene glycol 400 (PEG400) and 20% water. IV formulation was administered to 2 rats via pre-cannulated jugular vein, and oral dosing was administered to 2 rats via oral gavage. Blood was collected by pre-cannulated artery, typically at predose, 2 min, 8 min, 15 min. 30 min, and 1, 2, 4, 6, and 8 hr postdose for IV, and at predose, 15 min, 30 min, and 1, 2, 4, 6, 8 hr for oral dosing. Samples were collected in K2EDTA tubes, stored on ice, and centrifuged. Plasma was transferred to a micro titer plate and stored at −70° C. until analysis. Plasma samples were extracted using protein precipitation and analyzed by liquid chromatography separation followed by mass spec detection (LCMS/MS), using a standard curve for each compound. Plasma pharmacokinetic parameters were calculated for IV and oral dosing data by non-compartmental methods. Oral bioavailability was determined as the ratio of the dose-normalized plasma area under the curve (AUC) following oral dosing vs. IV dosing.

T1 sequence (P03952 391-638 limits assumed): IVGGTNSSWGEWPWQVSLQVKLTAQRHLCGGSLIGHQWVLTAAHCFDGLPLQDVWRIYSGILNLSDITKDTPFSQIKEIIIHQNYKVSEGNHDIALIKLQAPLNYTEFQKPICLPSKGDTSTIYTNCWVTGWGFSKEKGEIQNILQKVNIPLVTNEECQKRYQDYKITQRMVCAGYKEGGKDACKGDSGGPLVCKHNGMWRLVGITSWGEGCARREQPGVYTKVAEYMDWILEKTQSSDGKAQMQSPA
T1 sequence (P03952 20-390 partner limits assumed): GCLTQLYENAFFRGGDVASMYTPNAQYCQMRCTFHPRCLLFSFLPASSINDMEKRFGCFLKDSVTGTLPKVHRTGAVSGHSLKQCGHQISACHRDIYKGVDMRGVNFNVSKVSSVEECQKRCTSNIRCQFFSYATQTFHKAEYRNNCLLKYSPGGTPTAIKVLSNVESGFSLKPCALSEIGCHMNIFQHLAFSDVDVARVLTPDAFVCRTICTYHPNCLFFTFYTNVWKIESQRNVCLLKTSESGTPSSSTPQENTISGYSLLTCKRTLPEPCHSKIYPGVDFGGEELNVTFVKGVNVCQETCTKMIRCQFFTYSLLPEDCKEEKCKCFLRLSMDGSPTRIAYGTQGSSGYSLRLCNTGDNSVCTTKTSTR

Turning to `CCOC(=O)c1[nH]c2nc1-c1ccc(NC(=O)OC)cc1NC(=O)C(C)(C)CCC[C@@H]2c1ccc(-c2cc(F)ccc2-n2cc(C(F)(F)F)cn2)c[n+]1[O-]` [Example 1, (R,Z)-2-(1^5-(ethoxycarbonyl)-2^4-((methoxycarbonyl)amino)-5,5-dimethyl-4-oxo-1^1H-3-aza-1(4,2)-imidazola-2(1,2)-benzenacyclononaphane-9-yl)-5-(5-fluoro-2-(4-(trifluoromethyl)-1H-pyrazol-1-yl)phenyl)pyridine 1-oxide], the figures for the concentration for half-maximal inhibition (IC50) (at Human plasma kallikrein; in series [1]) were 119 nM and above 10 µM, respectively. Moreover, in series [2], the MRT was found to be 4 h.
Consider `CCOC(=O)c1[nH]c2nc1-c1ccc(NC(=O)OC)cc1NC(=O)C(C)(C)CCC[C@@H]2c1ccc(-c2cc(F)ccc2OC(F)F)c[n+]1[O-]` [Example 3, (R,Z)-5-(2-(difluoromethoxy)-5-fluorophenyl)-2-(1^5-(ethoxycarbonyl)-2^4-((methoxycarbonyl)amino)-5,5-dimethyl-4-oxo-1^1H-3-aza-1(4,2)-imidazola-2(1,2)-benzenacyclononaphane-9-yl)pyridine 1-oxide], for which the IC50 was 1.4 nM at Human plasma kallikrein and above 10 µM in series [1]. Besides, the MRT in series [2] is 3.2 h.
For `CCOC(=O)c1[nH]c2nc1-c1ccc(NC(=O)OC)cc1NC(=O)C(C)(C)CCC[C@@H]2c1ccc(-c2cc(Cl)ccc2-n2cc(C(F)(F)F)cn2)c[n+]1[O-]` [Example 2, (R,Z)-5-(5-chloro-2-(4-(trifluoromethyl)-1H-pyrazol-1-yl)phenyl)-2-(1^5-(ethoxycarbonyl)-2^4-((methoxycarbonyl)amino)-5,5-dimethyl-4-oxo-1^1H-3-aza-1(4,2)-imidazola-2(1,2)-benzenacyclononaphane-9-yl)pyridine 1-oxide] the same measures were 11 nM, above 10 µM and 3.7 h.
On to `CCOC(=O)c1[nH]c2nc1-c1ccc(NC(=O)OC)cc1NC(=O)C(C)(C)CCC[C@@H]2c1ccc(-c2cc(Cl)cnc2OC(F)F)c[n+]1[O-]` [Example 4, (R,Z)-5′-chloro-2′-(difluoromethoxy)-6-(1^5-(ethoxycarbonyl)-2^4-((methoxycarbonyl)amino)-5,5-dimethyl-4-oxo-1^1H-3-aza-1(4,2)-imidazola-2(1,2)-benzenacyclononaphane-9-yl)-[3,3′-bipyridine] 1-oxide], for which the IC50 on Human plasma kallikrein was 104 nM; in series [1] it was above 10 µM. This molecule displayed an MRT in series [2] of 3.8 h.
For `COC(=O)Nc1ccc2c(c1)NC(=O)C(C)(C)CCC[C@H](c1ccc(-c3cc(F)ccc3-n3cc(C(F)(F)F)cn3)c[n+]1[O-])c1nc-2c(C(=O)OC)[nH]1` [Example 6, (R,Z)-5-(5-fluoro-2-(4-(trifluoromethyl)-1H-pyrazol-1-yl)phenyl)-2-(1^5-(methoxycarbonyl)-2^4-((methoxycarbonyl)amino)-5,5-dimethyl-4-oxo-1^1H-3-aza-1(4,2)-imidazola-2(1,2)-benzenacyclononaphane-9-yl)pyridine 1-oxide] the same measures were 122 nM, above 10 µM and 3.1 h.
As to `CCOC(=O)c1[nH]c2nc1-c1ccc(NC(=O)OC)cc1NC(=O)C(C)(C)CCC[C@@H]2c1ccc(-c2cccc(Cl)c2F)c[n+]1[O-]` [Example 5, (R,Z)-5-(3-chloro-2-fluorophenyl)-2-(1^5-(ethoxycarbonyl)-2^4-((methoxycarbonyl)amino)-5,5-dimethyl-4-oxo-1^1H-3-aza-1(4,2)-imidazola-2(1,2)-benzenacyclononaphane-9-yl)pyridine 1-oxide], the half-maximal inhibitory concentration (IC50) was 0.49 nM on Human plasma kallikrein and above 10 µM in series [1]. In series [2], the mean residence time (MRT) turned out to be 3.7 h.
